Measured values taken from patent US11053251B2, “GPR35 modulators” (Prometheus Biosciences, Inc., priority 2019, dated 2021).

These compounds were tested against Human GPR35 (Homo sapiens, UniProt Q9HC97, S294R) (assay: Alternative Beta-Arrestin Assay (JumpIn 294R Tango U2OS cells, LiveBLAzer-FRET B/G)). Details: Human GPR35 expressing JumpIn 294R Tango U2OS cells, 5 hours treatment.
Type: cell-based
Protocol: Human GPR35 expressing JumpIn (Thermo Fisher) 294R Tango U2OS cells were plated in 384-well format in clear bottom plates at a cell density of 10,000 cells/well and allowed to grow overnight. The next day, cells were treated with serially diluted test compounds for 5 hours. LiveBLAzer-FRET B/G (CCF4-AM) detection reagents were then added and cells were allowed to incubate for 2 hours before reading plates on a BioTek Cytation 5 plate reader. Zaprinast was used as a positive control for dose-response curves. In order to determine EC50 values, data w ere fit to a four-parameter dose-response curves.

Chain of Human GPR35 (Q9HC97 whole entry S294R): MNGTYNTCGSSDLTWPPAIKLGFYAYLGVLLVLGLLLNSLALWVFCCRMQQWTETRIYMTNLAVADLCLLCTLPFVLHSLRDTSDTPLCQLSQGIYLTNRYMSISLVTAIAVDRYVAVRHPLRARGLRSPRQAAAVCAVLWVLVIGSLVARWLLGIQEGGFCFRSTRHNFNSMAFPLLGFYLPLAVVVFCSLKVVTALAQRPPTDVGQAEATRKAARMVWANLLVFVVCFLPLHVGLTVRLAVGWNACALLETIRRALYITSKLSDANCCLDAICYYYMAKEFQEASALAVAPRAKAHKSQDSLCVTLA

EC50, ≤ 10 µM:
O=C(O)COc1cccc(-c2ccc(-c3nc4[nH]nnc4c(=O)[nH]3)c(OC3CCCC3)c2)c1 [Compound 216, 2-((3′-(Cyclopentyloxy)-4′-(7-oxo-6,7-dihydro-3H-[1,2,3]triazolo[4,5-d]pyrimidin-5-yl)-[1,1′-biphenyl]-3-yl)oxy)acetic acid]
CCOc1cc(-c2cc(O)cc(OC(C)C(=O)O)c2)ccc1-c1nc2[nH]nnc2c(=O)[nH]1 (stereo not drawn) [Compound 276, 2-((3′-ethoxy-5-hydroxy-4′-(7-oxo-6,7-dihydro-3H-[1,2,3]triazolo[4,5-d]pyrimidin-5-yl)-[1,1′-biphenyl]-3-yl)oxy)propanoic acid]
CCOc1cc(-c2cccc(C(=O)O)c2F)ccc1-c1nc2[nH]nnc2c(=O)[nH]1 [Compound 186, 3′-ethoxy-2-fluoro-4′-(7-oxo-6,7-dihydro-3H-[1,2,3]triazolo[4,5-d]pyrimidin-5-yl)-[1,1′-biphenyl]-3-carboxylic acid]
CCOc1cc(-c2cccc(CCC(=O)O)c2)ccc1-c1nc2[nH]nnc2c(=O)[nH]1 [Compound 234, 3-(3′-ethoxy-4′-(7-oxo-6,7-dihydro-3H-[1,2,3]triazolo[4,5-d]pyrimidin-5-yl)-[1,1′-biphenyl]-3-yl)propanoic acid]
O=C(O)c1cc(-c2ccc(-c3nc4[nH]nnc4c(=O)[nH]3)c(OC3CCCC3)c2)ccc1O [Compound 200, 3′-(Cyclopentyloxy)-4-hydroxy-4′-(7-oxo-6,7-dihydro-3H-[1,2,3]triazolo[4,5-d]pyrimidin-5-yl)-[1,1′-biphenyl]-3-carboxylic acid]
CCOC(=O)c1ccc(-c2ccc(-c3nc4[nH]nnc4c(=O)[nH]3)c(OCC)c2)cc1 [Compound 191, ethyl 3′-ethoxy-4′-(7-oxo-6,7-dihydro-3H-[1,2,3]triazolo[4,5-d]pyrimidin-5-yl)-[1,1′-biphenyl]-4-carboxylate]
CCOc1cc(-c2ccc(O)c(OCC(=O)O)c2)ccc1-c1nc2[nH]nnc2c(=O)[nH]1 [Compound 281, 2-((3′-ethoxy-4-hydroxy-4′-(7-oxo-6,7-dihydro-3H-[1,2,3]triazolo[4,5-d]pyrimidin-5-yl)-[1,1′-biphenyl]-3-yl)oxy)acetic acid]
CCOc1cc(-c2cccc(C[C@H](N)C(=O)O)c2)ccc1-c1nc2[nH]nnc2c(=O)[nH]1 [Compound 274, (S)-2-amino-3-(3′-ethoxy-4′-(7-oxo-6,7-dihydro-3H-[1,2,3]triazolo[4,5-d]pyrimidin-5-yl)-[1,1′-biphenyl]-3-yl)propanoic acid]
CN(C)c1cc(-c2nc3[nH]nnc3c(=O)[nH]2)ccc1-c1ccc(C(=O)O)cc1 [Compound 288, 2′-(dimethylamino)-4′-(7-oxo-6,7-dihydro-3H-[1,2,3]triazolo[4,5-d]pyrimidin-5-yl)-[1,1′-biphenyl]-4-carboxylic acid]
O=C(O)c1ccc(-c2ccc(-c3nc4[nH]nnc4c(=O)[nH]3)c(OC3CCCC3)c2)cc1 [Compound 194, 3′-(Cyclopentyloxy)-4′-(7-oxo-6,7-dihydro-3H-[1,2,3]triazolo[4,5-d]pyrimidin-5-yl)-[1,1′-biphenyl]-4-carboxylic acid]
CCCNc1cc(-c2nc3[nH]nnc3c(=O)[nH]2)ccc1-c1ccc(C(=O)O)cc1 [Compound 291, 4′-(7-oxo-6,7-dihydro-3H-[1,2,3]triazolo[4,5-d]pyrimidin-5-yl)-2′-(propylamino)-[1,1′-biphenyl]-4-carboxylic acid]
O=C(O)c1ccc(-c2ccc(-c3nc4[nH]nnc4c(=O)[nH]3)c(OC3CCCC3)c2)cc1O [Compound 201, 3′-(Cyclopentyloxy)-3-hydroxy-4′-(7-oxo-6,7-dihydro-3H-[1,2,3]triazolo[4,5-d]pyrimidin-5-yl)-[1,1′-biphenyl]-4-carboxylic acid]
